Source: ChEMBL document CHEMBL4359904, “Structural tuning of acridones for developing anticancer agents targeting dihydrofolate reductase” (Bioorg Med Chem Lett, 2019)
Active and inactive are the calls of the source. The rule behind the calls is not given here.

How the values were obtained:
K562 = assay: Growth inhibition of human K562 cells at 10^-5 M incubated for 48 hrs by sulforhodamine B assay relative to control; type: functional; conditions: K562, 48 h, read-out: GI
IGROV-1 = assay: Growth inhibition of human IGROV1 cells incubated for 48 hrs by sulforhodamine B assay; type: functional; conditions: IGROV-1, 48 h
OVCAR-5 = assay: Growth inhibition of human OVCAR5 cells at 10^-5 M incubated for 48 hrs by sulforhodamine B assay relative to control; type: functional; conditions: OVCAR-5, 48 h, read-out: GI
CCRF-CEM = assay: Growth inhibition of human CCRF-CEM cells incubated for 48 hrs by sulforhodamine B assay; type: functional
RPMI-8226 = assay: Growth inhibition of human RPMI8226 cells at 10^-5 M incubated for 48 hrs by sulforhodamine B assay relative to control; type: functional; conditions: RPMI-8226, 48 h, read-out: GI
PC-3 = assay: Growth inhibition of human PC3 cells incubated for 48 hrs by sulforhodamine B assay; type: functional; conditions: PC-3, 48 h
Dihydrofolate reductase [1] = biological target: T1, Dihydrofolate reductase (Homo sapiens, UniProt P00374); assay: Inhibition of human dihydrofolate reductase using dihydrofolic acid as substrate preincubated for 1 hr in presence of NADPH followed by substrate addition by enzyme immunoassay
T1 sequence (P00374 whole entry): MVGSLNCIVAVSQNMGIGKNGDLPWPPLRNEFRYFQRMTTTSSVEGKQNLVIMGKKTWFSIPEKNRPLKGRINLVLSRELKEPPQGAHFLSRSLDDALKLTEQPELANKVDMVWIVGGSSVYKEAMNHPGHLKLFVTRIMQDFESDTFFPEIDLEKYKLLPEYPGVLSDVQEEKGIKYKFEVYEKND

UACC-257 = assay: Growth inhibition of human UACC257 cells incubated for 48 hrs by sulforhodamine B assay; type: functional; conditions: UACC-257, 48 h
NCI/ADR-RES = assay: Growth inhibition of human NCI/ADR-RES cells incubated for 48 hrs by sulforhodamine B assay; type: functional
OVCAR-8 = assay: Growth inhibition of human OVCAR8 cells incubated for 48 hrs by sulforhodamine B assay; type: functional; conditions: OVCAR-8, 48 h
MDA-MB-468 = assay: Growth inhibition of human MDA-MB-468 cells at 10^-5 M incubated for 48 hrs by sulforhodamine B assay relative to control; type: functional; conditions: MDA-MB-468, 48 h, read-out: GI
[2] = system: Panel NCI-60 (60 carcinoma cell lines); assay: Growth inhibition of human NCI60 cells at incubated for 48 hrs by sulforhodamine B assay; type: functional
C6 [3] = assay: Induction of morphological changes in rat C6 cells assessed as increase in total length of processes measured after 24 hrs by inverted microscopy analysis relative to control; type: functional
UO-31 = assay: Growth inhibition of human UO31 cells incubated for 48 hrs by sulforhodamine B assay; type: functional; conditions: UO-31, 48 h
786-0 = assay: Growth inhibition of human 786-0 cells incubated for 48 hrs by sulforhodamine B assay; type: functional; conditions: 786-0, 48 h
Malme-3M = assay: Growth inhibition of human MALME-3M cells incubated for 48 hrs by sulforhodamine B assay; type: functional
MDA-MB-435 = assay: Growth inhibition of human MDA-MB-435 cells incubated for 48 hrs by sulforhodamine B assay; type: functional; conditions: MDA-MB-435, 48 h
C6 [4] = assay: Cell cycle arrest in rat C6 cells assessed as increase in cell population at sub G0 phase measured after 24 hrs by propidium iodide staining based flow cytometry analysis; type: functional
HCT-116 = assay: Growth inhibition of human HCT116 cells incubated for 48 hrs by sulforhodamine B assay; type: functional; conditions: HCT-116, 48 h
C6 [5] = assay: Antiproliferative activity against rat C6 cells assessed as decrease in cell viability measured after 48 hrs by MTT assay; type: functional, cell-based
SK-OV-3 = assay: Growth inhibition of human SKOV3 cells incubated for 48 hrs by sulforhodamine B assay; type: functional; conditions: SK-OV-3, 48 h
NCI-H460 [6] = assay: Growth inhibition of human NCI-H460 cells at 10^-5 M cells incubated for 48 hrs by sulforhodamine B assay relative to control; type: functional
Dihydrofolate reductase [7] = biological target: T1, Dihydrofolate reductase; assay: Inhibition of human dihydrofolate reductase assessed as inhibition constant by UV-Vis spectra based Benesi Hilebrand equation analysis
NCI-H23 = assay: Growth inhibition of human NCI-H23 cells incubated for 48 hrs by sulforhodamine B assay; type: functional; conditions: NCI-H23, 48 h
MCF7 = assay: Growth inhibition of human MCF7 cells incubated for 48 hrs by sulforhodamine B assay; type: functional; conditions: MCF7, 48 h
A549 = assay: Growth inhibition of human A549/ATCC cells incubated for 48 hrs by sulforhodamine B assay; type: functional; conditions: A549, 48 h
SW-620 = assay: Growth inhibition of human SW620 cells incubated for 48 hrs by sulforhodamine B assay; type: functional; conditions: SW-620, 48 h
MDA-MB-231 = assay: Growth inhibition of human MDA-MB-231/ATCC cells incubated for 48 hrs by sulforhodamine B assay; type: functional; conditions: MDA-MB-231, 48 h
NCI-H460 [8] = assay: Growth inhibition of human NCI-H460 cells incubated for 48 hrs by sulforhodamine B assay; type: functional; conditions: NCI-H460, 48 h
OVCAR-3 = assay: Growth inhibition of human OVCAR3 cells incubated for 48 hrs by sulforhodamine B assay; type: functional; conditions: OVCAR-3, 48 h
SR = assay: Growth inhibition of human SR cells at 10^-5 M incubated for 48 hrs by sulforhodamine B assay relative to control; type: functional; conditions: read-out: GI
[9] = read-out: pLC50 (the source's name) (converted)
[10] = read-out: LC50 (the source's name)

O=C(OC[C@@H]1CO1)c1cccc2c(=O)c3ccccc3[nH]c12
inhibition of growth at 10 µM (K562): 95% | GI50 (IGROV-1): 1.55 µM | CC50 (IGROV-1; [9]): > 100 µM | TGI (IGROV-1; read-out: pTGI (converted)): 5.62 µM | inhibition of growth at 10 µM (OVCAR-5): 100% | GI50 (CCRF-CEM; read-out: GI50): 0.77 µM | CC50 (CCRF-CEM; [10]): > 100 µM | CC50 (CCRF-CEM; [9]): > 100 µM | TGI (CCRF-CEM; read-out: pTGI (converted)): 21.9 µM | inhibition of growth at 10 µM (RPMI-8226): 100% | GI50 (PC-3): 2.04 µM | CC50 (PC-3; [9]): > 100 µM | TGI (PC-3; read-out: pTGI (converted)): 8.32 µM | IC50 (Dihydrofolate reductase [1]): 0.01 µM | GI50 (UACC-257): 2.09 µM | CC50 (UACC-257; [9]): 9.55 µM | TGI (UACC-257; read-out: pTGI (converted)): 4.47 µM | GI50 (NCI/ADR-RES): 1.7 µM | CC50 (NCI/ADR-RES; [9]): > 100 µM | TGI (NCI/ADR-RES; read-out: pTGI (converted)): 6.31 µM | GI50 (OVCAR-8): 1.26 µM | CC50 (OVCAR-8; [9]): 41.7 µM | TGI (OVCAR-8; read-out: pTGI (converted)): 5.37 µM | inhibition of growth at 10 µM (MDA-MB-468): 100% | GI50 [2]: 0.3 µM | TGI [2]: 1.2 µM | CC50 [2, 10]: 38 µM | Activity (C6 [3]): 85.53% | GI50 (UO-31): 1.74 µM | CC50 (UO-31; [9]): 77.6 µM | TGI (UO-31; read-out: pTGI (converted)): 5.01 µM | GI50 (786-0): 2.75 µM | CC50 (786-0; [9]): > 100 µM | TGI (786-0; read-out: pTGI (converted)): 8.13 µM | GI50 (Malme-3M): 1.66 µM | CC50 (Malme-3M; [9]): 6.17 µM | TGI (Malme-3M; read-out: pTGI (converted)): 3.16 µM | GI50 (MDA-MB-435): 1.62 µM | CC50 (MDA-MB-435; [9]): 6.61 µM | TGI (MDA-MB-435; read-out: pTGI (converted)): 3.24 µM | Activity (C6 [4]): Active | GI50 (HCT-116): 1.12 µM | CC50 (HCT-116; [9]): > 100 µM | TGI (HCT-116; read-out: pTGI (converted)): 8.71 µM | inhibition (C6 [5]): Dose-dependent effect | IC50 (C6 [5]; C6, 48 h): 0.25 to 1.5 µM | GI50 (SK-OV-3): 2.63 µM | CC50 (SK-OV-3; [9]): > 100 µM | TGI (SK-OV-3; read-out: pTGI (converted)): 7.41 µM | growth inhibition (GI) (NCI-H460 [6]): 100% | Ki (Dihydrofolate reductase [7]): 0.092 µM | GI50 (NCI-H23): 1.41 µM | CC50 (NCI-H23; [9]): > 100 µM | TGI (NCI-H23; read-out: pTGI (converted)): 4.47 µM | GI50 (MCF7; read-out: GI50): 0.38 µM | CC50 (MCF7; [10]): > 100 µM | GI50 (MCF7; read-out: pGI50 (converted)): 0.389 µM | CC50 (MCF7; [9]): > 100 µM | TGI (MCF7; read-out: pTGI (converted)): 2.95 µM | GI50 (A549): 2.45 µM | CC50 (A549; [9]): > 100 µM | TGI (A549; read-out: pTGI (converted)): 7.24 µM | GI50 (SW-620; read-out: GI50): 0.83 µM | CC50 (SW-620; [10]): > 100 µM | GI50 (SW-620; read-out: pGI50 (converted)): 0.832 µM | CC50 (SW-620; [9]): > 100 µM | TGI (SW-620; read-out: pTGI (converted)): 12.9 µM | GI50 (MDA-MB-231): 2.09 µM | CC50 (MDA-MB-231; [9]): > 100 µM | TGI (MDA-MB-231; read-out: pTGI (converted)): 5.25 µM | GI50 (NCI-H460 [8]): 1.7 µM | CC50 (NCI-H460 [8]; [9]): 51.3 µM | TGI (NCI-H460 [8]; read-out: pTGI (converted)): 4.47 µM | GI50 (OVCAR-3): 2.29 µM | CC50 (OVCAR-3; [9]): 51.3 µM | TGI (OVCAR-3; read-out: pTGI (converted)): 7.24 µM | inhibition of growth at 10 µM (SR): 90%
